Measurements: ChEMBL document CHEMBL1201862, “PubChem BioAssay data set” (2004)
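Each compound was tested at five concentrations against cells in 96-well plates for 48 hours. GI50 = concentration required for 50% inhibition of growth.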 Activity calls are given as the source filed them. No stated cut-off is given here; in the data, active = GI50 up to about 1.1 µM and inactive = higher.

Tests used:
Assay in all cases: NCI tumour cell line growth inhibition, 48 h
786-0 = tested on: 786-0
A498 = tested on: A498
ACHN = tested on: ACHN
CCRF-CEM = tested on: CCRF-CEM
COLO 205 = tested on: COLO 205
DLD-1 = tested on: DLD-1
DU-145 = tested on: DU-145
HCC 2998 = tested on: HCC 2998
HCT-116 = tested on: HCT-116
HCT-15 = tested on: HCT-15
HL-60 = tested on: HL-60
HOP-18 = tested on: HOP-18
HOP-92 = tested on: HOP-92
HT-29 = tested on: HT-29
IGROV-1 = tested on: IGROV-1
K562 = tested on: K562
KM-20L2 = tested on: KM-20L2
KM12 = tested on: KM12
LOX IMVI = tested on: LOX IMVI
LXFL 529 = tested on: LXFL 529
M14 = tested on: M14
M19-MEL = tested on: M19-MEL
MOLT-4 = tested on: MOLT-4
Malme-3M = tested on: Malme-3M
NCI-H226 = tested on: NCI-H226
NCI-H23 = tested on: NCI-H23
NCI-H460 = tested on: NCI-H460
NCI-H522 = tested on: NCI-H522
OVCAR-3 = tested on: OVCAR-3
OVCAR-4 = tested on: OVCAR-4
OVCAR-5 = tested on: OVCAR-5
OVCAR-8 = tested on: OVCAR-8
RPMI-8226 = tested on: RPMI-8226
RXF 393 = tested on: RXF 393
RXF 631 = tested on: RXF 631
SF-268 = tested on: SF-268
SF-295 = tested on: SF-295
SF-539 = tested on: SF-539
SK-MEL-28 = tested on: SK-MEL-28
SK-MEL-2 = tested on: SK-MEL-2
SK-OV-3 = tested on: SK-OV-3
SN12C = tested on: SN12C
SNB-19 = tested on: SNB-19
SNB-75 = tested on: SNB-75
SR = tested on: SR
SW-620 = tested on: SW-620
TK-10 = tested on: TK-10
U-251 = tested on: U-251
UACC-257 = tested on: UACC-257
UACC-62 = tested on: UACC-62
UO-31 = tested on: UO-31
XF498 = tested on: XF498
A549 = tested on: A549
CAKI-1 = tested on: CAKI-1
DMS-114 = tested on: DMS-114
DMS-273 = tested on: DMS-273
EKVX = tested on: EKVX
HOP-62 = tested on: HOP-62
SNB-78 = tested on: SNB-78

SMILES: C=C=C(Sc1ccccc1)C(C)(C)O
- GI50 (786-0): > 100 µM (inactive)
- GI50 (A498): > 100 µM (inactive)
- GI50 (ACHN): > 100 µM (inactive)
- GI50 (CCRF-CEM): > 100 µM (inactive)
- GI50 (COLO 205): > 100 µM (inactive)
- GI50 (DLD-1): > 100 µM (inactive)
- GI50 (DU-145): > 100 µM (inactive)
- GI50 (HCC 2998): > 100 µM (inactive)
- GI50 (HCT-116): > 100 µM (inactive)
- GI50 (HCT-15): > 100 µM
- GI50 (HL-60): > 100 µM (inactive)
- GI50 (HOP-18): > 100 µM (inactive)
- GI50 (HOP-92): > 100 µM (inactive)
- GI50 (HT-29): > 100 µM (inactive)
- GI50 (IGROV-1): > 100 µM (inactive)
- GI50 (K562): > 100 µM (inactive)
- GI50 (KM-20L2): > 100 µM (inactive)
- GI50 (KM12): > 100 µM (inactive)
- GI50 (LOX IMVI): > 100 µM (inactive)
- GI50 (LXFL 529): > 100 µM (inactive)
- GI50 (M14): > 100 µM (inactive)
- GI50 (M19-MEL): > 100 µM (inactive)
- GI50 (MOLT-4): > 100 µM (inactive)
- GI50 (Malme-3M): > 100 µM (inactive)
- GI50 (NCI-H226): > 100 µM (inactive)
- GI50 (NCI-H23): > 100 µM (inactive)
- GI50 (NCI-H460): > 100 µM (inactive)
- GI50 (NCI-H522): 0.399 µM (active)
- GI50 (OVCAR-3): > 100 µM (inactive)
- GI50 (OVCAR-4): > 100 µM (inactive)
- GI50 (OVCAR-5): > 100 µM (inactive)
- GI50 (OVCAR-8): > 100 µM (inactive)
- GI50 (RPMI-8226): > 100 µM (inactive)
- GI50 (RXF 393): > 100 µM (inactive)
- GI50 (RXF 631): > 100 µM (inactive)
- GI50 (SF-268): > 100 µM (inactive)
- GI50 (SF-295): > 100 µM (inactive)
- GI50 (SF-539): > 100 µM (inactive)
- GI50 (SK-MEL-28): > 100 µM (inactive)
- GI50 (SK-MEL-2): > 100 µM (inactive)
- GI50 (SK-OV-3): > 100 µM (inactive)
- GI50 (SN12C): > 100 µM (inactive)
- GI50 (SNB-19): > 100 µM (inactive)
- GI50 (SNB-75): 38.6 µM (inactive)
- GI50 (SR): > 100 µM (inactive)
- GI50 (SW-620): > 100 µM (inactive)
- GI50 (TK-10): > 100 µM (inactive)
- GI50 (U-251): > 100 µM (inactive)
- GI50 (UACC-257): > 100 µM (inactive)
- GI50 (UACC-62): > 100 µM (inactive)
- GI50 (UO-31): > 100 µM (inactive)
- GI50 (XF498): > 100 µM (inactive)

SMILES: CC(C)CC(CNC(Cc1ccc(Cl)cc1)C(N)=O)NC(=O)C(Cc1c[nH]cn1)NC(=O)CNC(=O)C(NC(=O)C(C)NC(=O)C(Cc1c[nH]c2ccccc12)NC(=O)C(CCC(=O)O)NC(=O)C(N)Cc1ccccc1)C(C)C (stereo unspecified)
- GI50 (786-0): > 133 µM (inactive)
- GI50 (A498): > 133 µM (inactive)
- GI50 (A549): > 133 µM (inactive)
- GI50 (ACHN): > 133 µM (inactive)
- GI50 (CAKI-1): > 133 µM (inactive)
- GI50 (CCRF-CEM): > 133 µM (inactive)
- GI50 (COLO 205): > 133 µM (inactive)
- GI50 (DLD-1): > 133 µM (inactive)
- GI50 (DMS-114): 119 µM (inactive)
- GI50 (DMS-273): > 133 µM (inactive)
- GI50 (EKVX): > 133 µM (inactive)
- GI50 (HCC 2998): > 133 µM (inactive)
- GI50 (HCT-116): > 133 µM (inactive)
- GI50 (HCT-15): > 133 µM
- GI50 (HL-60): > 133 µM (inactive)
- GI50 (HOP-62): > 133 µM (inactive)
- GI50 (HOP-92): < 0.0133 µM (active)
- GI50 (HT-29): > 133 µM (inactive)
- GI50 (IGROV-1): > 133 µM (inactive)
- GI50 (K562): > 133 µM (inactive)
- GI50 (KM-20L2): > 133 µM (inactive)
- GI50 (KM12): > 133 µM (inactive)
- GI50 (LXFL 529): > 133 µM (inactive)
- GI50 (M19-MEL): > 133 µM (inactive)
- GI50 (MOLT-4): > 133 µM (inactive)
- GI50 (NCI-H23): > 133 µM (inactive)
- GI50 (NCI-H460): > 133 µM (inactive)
- GI50 (OVCAR-3): > 133 µM (inactive)
- GI50 (OVCAR-4): > 133 µM (inactive)
- GI50 (OVCAR-8): > 133 µM (inactive)
- GI50 (RPMI-8226): > 133 µM (inactive)
- GI50 (RXF 393): > 133 µM (inactive)
- GI50 (RXF 631): > 133 µM (inactive)
- GI50 (SF-295): > 133 µM (inactive)
- GI50 (SF-539): > 133 µM (inactive)
- GI50 (SK-MEL-28): > 133 µM (inactive)
- GI50 (SK-MEL-2): > 133 µM (inactive)
- GI50 (SK-OV-3): > 133 µM (inactive)
- GI50 (SN12C): > 133 µM (inactive)
- GI50 (SNB-19): > 133 µM (inactive)
- GI50 (SNB-75): > 133 µM (inactive)
- GI50 (SNB-78): > 133 µM (inactive)
- GI50 (SR): > 133 µM (inactive)
- GI50 (SW-620): > 133 µM (inactive)
- GI50 (U-251): > 133 µM (inactive)
- GI50 (UACC-257): > 133 µM (inactive)
- GI50 (UACC-62): > 133 µM (inactive)
- GI50 (UO-31): 8.17 µM (inactive)
- GI50 (XF498): > 133 µM (inactive)
